From patent US20210045385A1, “PYRIDAZINONE-SUBSTITUTED KETOXIMES AS HERBICIDES” (FMC Corporation, priority 2018, published 2021)

How the values were obtained:
Format in all cases: in vivo
[1] = system: pigweed (Amaranthus retroflexus); assay: Test C postemergence, visual plant response rating
Summary of the method: (§1)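 Compounds in a non-phytotoxic solvent with surfactant were applied as a directed soil spray preemergence or to 2–10 cm, one- to two-leaf plants postemergence, in loam–sand soil. After about 10 d in a greenhouse, injury was visually rated against untreated controls on a 0–100 scale (100 = complete control).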

[2] = system: foxtail, giant (giant foxtail, Setaria faberi); assay: Test C postemergence, visual plant response rating
Summary of the method: as §1

[3] = system: kochia (Bassia scoparia); assay: Test C postemergence, visual plant response rating
Summary of the method: as §1

[4] = system: ragweed (common ragweed, Ambrosia artemisiifolia); assay: Test C postemergence, visual plant response rating
Summary of the method: as §1

[5] = system: wheat (Triticum aestivum); assay: Test C postemergence, visual plant response rating
Summary of the method: as §1

[6] = system: Italian ryegrass (Lolium mutiflorum); assay: Test C postemergence, visual plant response rating
Summary of the method: as §1

[7] = system: corn (Zea mays); assay: Test C postemergence, visual plant response rating
Summary of the method: as §1

[8] = system: blackgrass (Alopecurus myosuroides); assay: Test C postemergence, visual plant response rating
Summary of the method: as §1

[9] = system: galium (catchweed bedstraw, Galium aparine); assay: Test C postemergence, visual plant response rating
Summary of the method: as §1

[10] = system: barnyardgrass (Echinochloa crus-galli); assay: Test C postemergence, visual plant response rating
Summary of the method: as §1

[11] = system: rice (Oryza sativa); assay: Test D flooded paddy test, visual plant response rating; details: 250 g ai/ha, scale 0 to 100 (0 no effect, 100 complete control), 13 to 15 d
Summary of the method: (§2)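 2-leaf plants, flooded 3 cm, cpd into paddy water; greenhouse 13–15 d; visual rating vs controls, 0 = no effect, 100 = complete control; dash = no result.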

[12] = system: duck salad (Heteranthera limosa); assay: as above; details: 250 g ai/ha, scale 0 to 100 (0 no effect, 100 complete control), 13 to 15 d
Summary of the method: as §2

[13] = system: sedge umbrella (small-flower umbrella sedge, Cyperus difformis); assay: as above; details: 250 g ai/ha, scale 0 to 100 (0 no effect, 100 complete control), 13 to 15 d
Summary of the method: as §2

[14] = system: barnyardgrass (Echinochloa crus-galli); assay: as above; details: 250 g ai/ha, scale 0 to 100 (0 no effect, 100 complete control), 13 to 15 d
Summary of the method: as §2

[15] = system: pigweed (Amaranthus retroflexus); assay: Test C preemergence, visual plant response rating
Summary of the method: as §1

[16] = system: foxtail, giant (giant foxtail, Setaria faberi); assay: Test C preemergence, visual plant response rating
Summary of the method: as §1

[17] = system: kochia (Bassia scoparia); assay: Test C preemergence, visual plant response rating
Summary of the method: as §1

[18] = system: ragweed (common ragweed, Ambrosia artemisiifolia); assay: Test C preemergence, visual plant response rating
Summary of the method: as §1

[19] = system: Italian ryegrass (Lolium mutiflorum); assay: Test C preemergence, visual plant response rating
Summary of the method: as §1

[20] = system: barnyardgrass (Echinochloa crus-galli); assay: Test C preemergence, visual plant response rating
Summary of the method: as §1

[21] = Test C, postemergence, 125 g ai/ha
[22] = Test C, 31 g ai/ha, 0 is no effect, 100 is complete control
[23] = Test C, 125 g ai/ha, 0 is no effect, 100 is complete control

SMILES	Pigweed plant response rating (0 to 100 scale) ([1]; Postemergence, 31 g ai/ha)	Pigweed plant response rating (0 to 100 scale) [1, 21]	Foxtail, Giant plant response rating (0 to 100 scale) ([2]; Postemergence, 31 g ai/ha)	Foxtail, Giant plant response rating (0 to 100 scale) [2, 21]	Kochia plant response rating (0 to 100 scale) ([3]; Postemergence, 31 g ai/ha)	Kochia plant response rating (0 to 100 scale) [3, 21]	Ragweed plant response rating (0 to 100 scale) ([4]; Postemergence, 31 g ai/ha)	Ragweed plant response rating (0 to 100 scale) [4, 21]	Wheat plant response rating (0 to 100 scale) ([5]; Postemergence, 31 g ai/ha)	Wheat plant response rating (0 to 100 scale) [5, 21]	Ryegrass, Italian plant response rating (0 to 100 scale) ([6]; Postemergence, 31 g ai/ha)	Ryegrass, Italian plant response rating (0 to 100 scale) [6, 21]	Corn plant response rating (0 to 100 scale) ([7]; Postemergence, 31 g ai/ha)	Corn plant response rating (0 to 100 scale) [7, 21]	Blackgrass plant response rating (0 to 100 scale) ([8]; Postemergence, 31 g ai/ha)	Blackgrass plant response rating (0 to 100 scale) [8, 21]	Galium plant response rating (0 to 100 scale) ([9]; Postemergence, 31 g ai/ha)	Galium plant response rating (0 to 100 scale) [9, 21]	Barnyardgrass plant response rating (0 to 100 scale) ([10]; Postemergence, 31 g ai/ha)	Barnyardgrass plant response rating (0 to 100 scale) [10, 21]	further results
CO/N=C(/c1ccc(Cl)c(Cl)c1)c1c(O)c(C)nn(C)c1=O [Compound 216]	0	20	0	0	20	50	10	40	0	0	0	0	0	0	0	0	30	80	0	10	Plant response rating, Rice (Flood) [11]: 0; Plant response rating, Ducksalad (Flood) [12]: 0; Plant response rating, Sedge, Umbrella (Flood) [13]: 0; Plant response rating, Barnyardgrass (Flood) [14]: 0; Pigweed plant response rating (0 to 100 scale) [15, 22]: 0; Pigweed plant response rating (0 to 100 scale) [15, 23]: 0; Foxtail, Giant plant response rating (0 to 100 scale) [16, 22]: 0; Foxtail, Giant plant response rating (0 to 100 scale) [16, 23]: 0; Kochia plant response rating (0 to 100 scale) [17, 22]: 0; Kochia plant response rating (0 to 100 scale) [17, 23]: 0; Ragweed plant response rating (0 to 100 scale) [18, 22]: 0; Ragweed plant response rating (0 to 100 scale) [18, 23]: 0; Ryegrass, Italian plant response rating (0 to 100 scale) [19, 22]: 0; Ryegrass, Italian plant response rating (0 to 100 scale) [19, 23]: 10; Barnyardgrass plant response rating (0 to 100 scale) [20, 22]: 50; Barnyardgrass plant response rating (0 to 100 scale) [20, 23]: 0
CON=C(c1cccc(OC(F)F)c1)c1c(O)c(C)nn(C)c1=O [Compound 202]	20	60	0	0	10	40	0	20	0	0	10	30	0	0	0	0	40	70	0	10	Plant response rating, Rice (Flood) [11]: 0; Plant response rating, Ducksalad (Flood) [12]: 0; Plant response rating, Sedge, Umbrella (Flood) [13]: 0; Plant response rating, Barnyardgrass (Flood) [14]: 0; Pigweed plant response rating (0 to 100 scale) [15, 22]: 0; Pigweed plant response rating (0 to 100 scale) [15, 23]: 0; Foxtail, Giant plant response rating (0 to 100 scale) [16, 22]: 0; Foxtail, Giant plant response rating (0 to 100 scale) [16, 23]: 0; Kochia plant response rating (0 to 100 scale) [17, 22]: 0; Kochia plant response rating (0 to 100 scale) [17, 23]: 0; Ragweed plant response rating (0 to 100 scale) [18, 22]: 0; Ragweed plant response rating (0 to 100 scale) [18, 23]: 10; Ryegrass, Italian plant response rating (0 to 100 scale) [19, 22]: 0; Ryegrass, Italian plant response rating (0 to 100 scale) [19, 23]: 10; Barnyardgrass plant response rating (0 to 100 scale) [20, 22]: 0; Barnyardgrass plant response rating (0 to 100 scale) [20, 23]: 0
CO/N=C(/c1c(O)cnn(C)c1=O)c1ccc(F)c2ccccc12 [Compound 304]	50	80	0	20	30	50	0	10	0	0	20	60	10	20	0	0	10	80	0	0	Plant response rating, Rice (Flood) [11]: 0; Plant response rating, Ducksalad (Flood) [12]: 0; Plant response rating, Sedge, Umbrella (Flood) [13]: 0; Plant response rating, Barnyardgrass (Flood) [14]: 0; Pigweed plant response rating (0 to 100 scale) [15, 22]: 10; Pigweed plant response rating (0 to 100 scale) [15, 23]: 20; Foxtail, Giant plant response rating (0 to 100 scale) [16, 22]: 0; Foxtail, Giant plant response rating (0 to 100 scale) [16, 23]: 10; Kochia plant response rating (0 to 100 scale) [17, 22]: 0; Kochia plant response rating (0 to 100 scale) [17, 23]: 0; Ragweed plant response rating (0 to 100 scale) [18, 22]: 0; Ragweed plant response rating (0 to 100 scale) [18, 23]: 40; Ryegrass, Italian plant response rating (0 to 100 scale) [19, 22]: 0; Ryegrass, Italian plant response rating (0 to 100 scale) [19, 23]: 20; Barnyardgrass plant response rating (0 to 100 scale) [20, 22]: 0; Barnyardgrass plant response rating (0 to 100 scale) [20, 23]: 0
CON=C(c1cc(Cl)cc(OC)c1)c1c(O)c(C)nn(C)c1=O [Compound 175]	50	70	50	80	80	100	80	90	0	0	50	70	10	20	20	30	90	100	50	70	Plant response rating, Rice (Flood) [11]: 0; Plant response rating, Ducksalad (Flood) [12]: 0; Plant response rating, Sedge, Umbrella (Flood) [13]: 0; Plant response rating, Barnyardgrass (Flood) [14]: 0; Pigweed plant response rating (0 to 100 scale) ([15]; 125 g ai/ha): 30; Pigweed plant response rating (0 to 100 scale) [15, 22]: 0; Foxtail, Giant plant response rating (0 to 100 scale) ([16]; 125 g ai/ha): 70; Foxtail, Giant plant response rating (0 to 100 scale) [16, 22]: 30; Kochia plant response rating (0 to 100 scale) ([17]; 125 g ai/ha): 80; Kochia plant response rating (0 to 100 scale) [17, 22]: 40; Ragweed plant response rating (0 to 100 scale) ([18]; 125 g ai/ha): 100; Ragweed plant response rating (0 to 100 scale) [18, 22]: 40; Ryegrass, Italian plant response rating (0 to 100 scale) ([19]; 125 g ai/ha): 50; Ryegrass, Italian plant response rating (0 to 100 scale) [19, 22]: 30; Barnyardgrass plant response rating (0 to 100 scale) ([20]; 125 g ai/ha): 70; Barnyardgrass plant response rating (0 to 100 scale) [20, 22]: 50
